Laboratory results published in patent US3933853A, “Indole derivatives” (Clin Midy, priority 1972, dated 1976).
Like-named read-outs stand apart in the source and are kept apart here.

Assays:
[1] = tested on: visceral pain in the mouse; test: Analgesic effect, Koster and Anderson test (visceral pain induced by intraperitoneal acetic acid); assay type: in vivo; conditions: oral, 30 minutes before acetic acid injection, read-out: ED50 (50% effective dose reducing by one half the number of symptoms of pain)
Procedure: A visceral pain is induced in the mouse by intraperitonal injection of a dilute solution of acetic acid (Koster and Anderson test).
The animals, which are starved on the day before the experiment, and separated into random batches of five, are treated with the products under test 30 minutes before injection of the irritant. Treatment was always performed orally.
After the acetic solution is injected the animals show symptoms of pain (stretching of the abdomen with extension of the back feet) which are counted during two spells of five minutes for each lot: from the fifth to the tenth minute and from the fifteen to the twentieth minute respectively after the acid is injected.
The ED50 value is expressed in mg per kg bodyweight.
These doses were obtained by oral administration of the products of the invention.

Acute toxicity (LD50) = conditions: in vivo, mouse
Description: Moreover, the compounds of the present invention are not, in general, very toxic.
Toxicity, expressed in mg/kg bodyweight, is given below for certain other compounds when administered by the sub-cutaneous route and by the oral route.

central nervous system = test: Tranquillising effect, exploration test (perforated board); assay type: in vivo; conditions: mouse, oral route
Procedure: Exploration test (perforated board): the number of holes explored by an animal (mouse) which has unrestricted movement and is placed on the board for the first time, are recorded.

[2] = sc, sub-cutaneous route, read-out: LD50 / toxicity, sub-cutaneous
[3] = oral route, read-out: LD50 / toxicity, oral

| Structure (SMILES) | ED50 [1] [mg/kg] | LD50 (Acute toxicity (LD50); [2]) [mg/kg] | LD50 (Acute toxicity (LD50); [3]) [mg/kg] | ED50 (central nervous system) [mg/kg] |
| --- | --- | --- | --- | --- |
| CC(Cc1cn(CCN(C)C)c2ccccc12)=NO [compound 5354] | 3 |  |  |  |
| CC(Cc1cn(CCN(C)C)c2ccccc12)=NOCCN(C)C [compound 5444] | 6.25 to 12.5 |  |  |  |
| CCN(CC)CCn1cc(CC(C)=O)c2ccccc21 [compound 5477] |  | 200 | 400 |  |
| COc1ccc(-n2cc(CC(C)O)c3ccccc32)cc1 (centres unmarked) [compound 5992] |  | > 400 | > 400 | 1 |
| CCN(CC)CCn1cc(CC(C)O)c2ccccc21 (centres unmarked) [compound 5938] | 1.5 |  |  |  |
| CC(=O)Cc1cn(CCN(C)C)c2ccccc12 [compound 5353] | 1.5 |  |  | 5 |
| CC(=O)ON=C(C)Cc1cn(CCN(C)C)c2ccccc12 [compound 5472] | 0.75 to 1.5 | 400 | 200 | 5 |
| CC(O)Cc1cn(CCN(C)C)c2ccccc12 (centres unmarked) [compound 5607] | 0.75 | 800 | > 800 |  |
| CCC(=O)ON=C(C)Cc1cn(CCN(C)C)c2ccccc12 [compound 5473] | 0.75 to 1.5 | 200 to 400 | > 400 |  |
